According to patent US4929751A, “Vinyl tricarbonyl compounds and methods of making the same” (Yale University, priority 1987, dated 1990):
pIC50: −log10 of the molar value. Where two headings read alike, the source gives them in different places.

Tests used:
Assay in all cases: growth inhibition of tumor cell line
Type in all cases: cell-based
OVCAR-4 (ovarian) = settings: Homo sapiens, logarithm of the concentration inhibiting growth by 50%
Description: (§1) t-Butyl 2,3-dioxo-pent-4-enoate hydrate (A) was contacted with various cell lines as indicated on Table 1 hereinbelow in the column designated as "CELL" or "TUMOR". […]
(§2) Table 1 reports and illustrates the results obtained by testing t-butyl 2,3-dioxo-pent-4-enoate hydrate. The concentration of this compound found to inhibit the growth of each cell line listed under "CELL" by 50% is reported under "LOG(IC50)" as the logarithm of the concentration. The units of concentration are either molarity in which case an "M" is shown in parentheses next to the LOG(IC50) label, or micrograms per ml, in which case a "W" (for weight) is shown in parenthesis. The cell line names are grouped by disease type and the disease type names are listed on the far left.

LOX (melanoma) = tested on: LOX (melanoma)
Description: as §1, §2

OVCAR-3 (ovarian) = settings: Homo sapiens
Description: as §1, §2

[1] = tested on: A549 (nonsmall cell lung cancer); settings: Homo sapiens, logarithm of the concentration inhibiting growth by 50%
Description: as §1, §2

[2] = tested on: SNB-75 (central nervous system); settings: Homo sapiens
Description: as §1, §2

MCF-7 (breast) = settings: Homo sapiens
Description: as §1, §2

A2780 (ovarian) = settings: Homo sapiens
Description: as §1, §2

[3] = tested on: H125 (nonsmall cell lung cancer); settings: Homo sapiens, NCI-H125
Description: as §1, §2

K562 (leukemia) = settings: Homo sapiens
Description: as §1, §2

LOVO (colon) = settings: Homo sapiens
Description: as §1, §2

[4] = tested on: TE-671 (central nervous system); settings: Homo sapiens
Description: as §1, §2

[5] = tested on: H82 (small cell lung cancer)
Description: as §1, §2

[6] = tested on: H520 (nonsmall cell lung cancer); settings: Homo sapiens, NCI-H520
Description: as §1, §2

HCC-2998 (colon) = settings: Homo sapiens
Description: as §1, §2

P388 = settings: Mus musculus
Description: as §1, §2

MALME-3M (melanoma) = settings: Homo sapiens
Description: as §1, §2

DLD-1 (colon) = settings: Homo sapiens
Description: as §1, §2

[7] = tested on: H522 (nonsmall cell lung cancer); settings: Homo sapiens, NCI-H522
Description: as §1, §2

[8] = tested on: SNB-19 (central nervous system); settings: Homo sapiens
Description: as §1, §2

[9] = tested on: H460 (nonsmall cell lung cancer); settings: Homo sapiens, NCI-H460, logarithm of the concentration inhibiting growth by 50%
Description: as §1, §2

[10] = tested on: MCF-7/ADR (resistant breast cancer); settings: Homo sapiens
Description: as §1, §2

SK-MEL5 (melanoma) = settings: Homo sapiens
Description: as §1, §2

[11] = tested on: H146 (small cell lung cancer); settings: Homo sapiens, NCI-H146
Description: as §1, §2

OVCAR-8 (ovarian) = settings: Homo sapiens
Description: as §1, §2

A704 (renal) = settings: Homo sapiens
Description: as §1, §2

SW620 (colon) = settings: Homo sapiens
Description: as §1, §2

[12] = tested on: SNB-44 (central nervous system)
Description: as §1, §2

[13] = logarithm of the concentration inhibiting growth by 50%, read-out: LOG(IC50) (converted)

For C=CC(=O)C(O)(O)C(=O)OC(C)(C)C [t-butyl 2,3-dioxo-pent-4-enoate hydrate], the pIC50 (OVCAR-4 (ovarian)) was 3.60, the IC90 (LOX (melanoma)) was 258 µM and the IC50 (LOX (melanoma); [13]) was 100 µM. It also gave a pIC50 (LOX (melanoma); read-out: IC-50 MEAN) of 3.99, an IC90 (OVCAR-3 (ovarian)) of 270 µM and an IC50 (OVCAR-3 (ovarian); [13]) of 100 µM. For the same compound, the pIC50 (OVCAR-3 (ovarian); read-out: IC-50 MEAN) was 4.02, the pIC50 [1] was < 3.60 and the IC90 [2] was 231 µM. The IC50 [2, 13] was 79.4 µM, the pIC50 ([2]; read-out: IC-50 MEAN) was 4.09 and the IC90 (MCF-7 (breast); MCF7) was 232 µM. It also gave an IC50 (MCF-7 (breast); MCF7, logarithm of the concentration inhibiting growth by 50%, read-out: LOG(IC50) (converted)) of 100 µM, a pIC50 (MCF-7 (breast); MCF7, read-out: IC-50 MEAN) of 4.01 and an IC90 (A2780 (ovarian)) of 249 µM. The IC50 (A2780 (ovarian); [13]) was 63.1 µM, the pIC50 (A2780 (ovarian); read-out: IC-50 MEAN) was 4.15 and the IC50 ([3]; H125, logarithm of the concentration inhibiting growth by 50%, read-out: LOG(IC50) (converted)) was 50.1 µM. The pIC50 ([3]; read-out: IC-50 MEAN) was 4.13, the IC90 (K562 (leukemia)) was 225 µM and the IC50 (K562 (leukemia); [13]) was 100 µM. It also gave a pIC50 (K562 (leukemia); read-out: IC-50 MEAN) of 4.04, an IC90 (LOVO (colon); LoVo) of 262 µM and a pIC50 (LOVO (colon); LoVo, read-out: IC-50 MEAN) of 4.02. It also gave an IC50 (LOVO (colon); LOVO, logarithm of the concentration inhibiting growth by 50%, read-out: LOG(IC50) (converted)) of 100 µM, an IC90 [4] of 231 µM and an IC50 [4, 13] of 126 µM. It also gave a pIC50 ([4]; read-out: IC-50 MEAN) of 3.94, an IC50 ([5]; H82, logarithm of the concentration inhibiting growth by 50%, read-out: LOG(IC50) (converted)) of 39.8 µM and an IC90 ([5]; Homo sapiens, NCI-H82) of 172 µM. The pIC50 ([5]; Homo sapiens, NCI-H82, read-out: IC-50 MEAN) was 4.44, the IC50 ([6]; H520, logarithm of the concentration inhibiting growth by 50%, read-out: LOG(IC50) (converted)) was 100 µM and the pIC50 ([6]; read-out: IC-50 MEAN) was 3.98. For the same compound, the pIC50 (HCC-2998 (colon); HCC 2998, HCC2998, logarithm of the concentration inhibiting growth by 50%, read-out: LOG(IC50)) was < 4.30, the pIC50 (HCC-2998 (colon); HCC-2998, read-out: IC-50 MEAN) was 4.28 and the IC90 (P388) was 248 µM. The IC50 (P388; [13]) was 100 µM, the pIC50 (P388; read-out: IC-50 MEAN) was 3.94 and the IC90 (MALME-3M (melanoma)) was 180 µM. It also gave an IC50 (MALME-3M (melanoma); MALME-3, logarithm of the concentration inhibiting growth by 50%, read-out: LOG(IC50) (converted)) of 100 µM, a pIC50 (MALME-3M (melanoma); read-out: IC-50 MEAN) of 4.10 and an IC90 (DLD-1 (colon)) of 187 µM. For the same compound, the IC50 (DLD-1 (colon); [13]) was 39.8 µM, the pIC50 (DLD-1 (colon); read-out: IC-50 MEAN) was 4.42 and the IC50 ([7]; H522, logarithm of the concentration inhibiting growth by 50%, read-out: LOG(IC50) (converted)) was 15.8 µM. The pIC50 ([7]; read-out: IC-50 MEAN) was 4.84, the IC90 [8] was 243 µM and the IC50 [8, 13] was 100 µM. The pIC50 ([8]; read-out: IC-50 MEAN) was 4.02, the pIC50 [9] was < 3.60 and the pIC50 ([10]; NCI/ADR-RES, MCF-7/ADR, read-out: IC-50 MEAN) was 4.02. It also gave an IC50 ([10]; MCF-7/A, logarithm of the concentration inhibiting growth by 50%, read-out: LOG(IC50) (converted)) of 100 µM, an IC90 (SK-MEL5 (melanoma); SK-MEL-5) of 222 µM and an IC50 (SK-MEL5 (melanoma); SK-MEL-5, logarithm of the concentration inhibiting growth by 50%, read-out: LOG(IC50) (converted)) of 63.1 µM. The pIC50 (SK-MEL5 (melanoma); SK-MEL-5, read-out: IC-50 MEAN) was 4.13, the IC50 ([11]; H146, logarithm of the concentration inhibiting growth by 50%, read-out: LOG(IC50) (converted)) was 126 µM and the pIC50 ([11]; read-out: IC-50 MEAN) was 3.91. The IC90 (OVCAR-8 (ovarian)) was 263 µM, the IC50 (OVCAR-8 (ovarian); [13]) was 126 µM and the pIC50 (OVCAR-8 (ovarian); read-out: IC-50 MEAN) was 3.94. It also gave an IC90 (A704 (renal)) of 229 µM, an IC50 (A704 (renal); [13]) of 50.1 µM and a pIC50 (A704 (renal); read-out: IC-50 MEAN) of 4.33. The IC90 (SW620 (colon); SW-620) was 234 µM, the IC50 (SW620 (colon); SW-620, logarithm of the concentration inhibiting growth by 50%, read-out: LOG(IC50) (converted)) was 63.1 µM and the pIC50 (SW620 (colon); SW-620, read-out: IC-50 MEAN) was 4.24. It also gave an IC90 ([12]; SNB44) of 235 µM, an IC50 ([12]; SNB44, logarithm of the concentration inhibiting growth by 50%, read-out: LOG(IC50) (converted)) of 100 µM and a pIC50 ([12]; SNB44, read-out: IC-50 MEAN) of 4.03.
